Assay results taken from patent US7105564B1, “Pharmaceutical composition comprising a dual antagonist against PGD2/TXA2 receptors having a [2.2.1] or [3.1.1] bicyclic skeleton” (Shionogi & Co., Ltd., priority 1999, dated 2006).
Like-named read-outs stand apart in the source and are kept apart here. Marks after values point to notes of the source that are not given here.

Experiments:
PGD2 receptor [1] = biological target: T1, PGD2 receptor (Homo sapiens, UniProt Q13258); test: Binding activity to PGD2 receptor in human platelet membrane fraction ([3H]PGD2); parameters: The platelets were homogenized using a homogenizer (Ultra-Turrax) followed by centrifugation 3 times at 20,000 rpm; from tissue; host or cells: human platelet membrane fraction from blood of healthy volunteers
T1 sequence (Q13258 1-359): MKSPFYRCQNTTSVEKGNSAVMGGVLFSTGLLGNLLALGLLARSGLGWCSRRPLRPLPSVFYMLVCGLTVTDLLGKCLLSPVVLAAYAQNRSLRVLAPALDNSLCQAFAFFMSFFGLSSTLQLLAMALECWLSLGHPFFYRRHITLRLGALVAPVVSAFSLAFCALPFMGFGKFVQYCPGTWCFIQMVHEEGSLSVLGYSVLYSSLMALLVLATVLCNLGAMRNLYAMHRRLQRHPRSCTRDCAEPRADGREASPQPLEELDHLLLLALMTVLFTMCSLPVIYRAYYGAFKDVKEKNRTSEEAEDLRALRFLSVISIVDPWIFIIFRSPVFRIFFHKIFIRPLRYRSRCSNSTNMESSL
Description: Experiment 1 Binding activity to PGD2 Receptor
(§1) (1) Preparation of Human Platelet Membrane Fraction
Blood was collected using a plastic syringe containing 3.8% sodium citrate from the vein of healthy volunteers (adult male and female), then put into a plastic test tube and mixed by slow-reversion. The sample was then centrifuged at 1800 rpm, for 10 min at room temperature, and the supernatant containing PRP (platelet-rich plasma) was collected. The PRP was recentrifuged at 2300 rpm, for 22 min at room temperature to obtain platelets. The platelets were homogenized using a homogenizer (Ultra-Turrax) followed by centrifugation 3 times at 20,000 rpm, 10 min at 4° C.. to obtain a platelet membrane fraction. After protein determination, the membrane fraction was adjusted to 2 mg/ml and preserved in a refrigerator at −80° C.. until using for the binding test.
(2) Binding to PGD2 Receptor
To a binding-reaction solution (50 mM Tris/HCl, pH 7.4, 5 mM MgCl2) (0.2 ml) were added the human platelet membrane fraction (0.1 mg) and 5 nM [^3H]PGD2 (115 Ci/mmol), and the mixture was reacted at 4° C. for 90 min. After the reaction, the mixture was filtered through a glass fiber filter paper and washed several times with cooled physiological saline, then the radioactivity retained on the filter paper was measured. The specific-binding ratio was calculated by subtracting the non-specific binding ratio which is the radioactivity similarly measured in the presence of 10 μM PGD2 from the total binding.

PGD2 receptor [2] = biological target: T1, PGD2 receptor; test: Antagonistic activity against PGD2 receptor using human platelet (inhibition of cAMP increase caused by PGD2); assay type: cell-based
Description: Experiment 3 Evaluation of Antagonistic Activity Against PGD2 Receptor Using Human Platelet
Peripheral blood was collected from a healthy volunteer using a syringe in which 1/9 volume of a citric acid/dextrose solution was previously added. The sample was subjected to centrifugation at 180 g for 10 min to obtain the supernatant (PRP: platelet rich plasma). The resultant PRP was washed 3 times with a washing buffer and the number of platelets was counted with a micro cell counter. A suspension adjusted to contain the platelets at a final concentration of 5×10^8/ml was warmed at 37° C., then subjected to the pre-treatment with 3-isobutyl-1-methylxanthine (0.5 mM) for 5 min. To the suspension was added a test compound diluted at various concentration, and 10 minutes later, 0.1 μM PGD2 was added to induce the reaction 2 minutes later, hydrochloric acid was added to terminate the reaction. The platelet was destroyed with an ultrasonic homogenizer. After centrifugation, the cAMP in the supernatant was determined by radioimmunoassay. PGD2 receptor antagonism of a drug was evaluated as follows: the inhibition rate regarding cAMP increased by the addition of PGD2 was determined at each concentration, and the concentration of the drug required for 50% inhibition (IC50) was calculated.

TXA2 receptor = biological target: T2, TXA2 receptor (Homo sapiens, UniProt P21731); test: Binding activity to TXA2 receptor in human platelet membrane fraction ([3H](+)-S-145 sodium salt)
T2 construct: The human platelet membrane fraction was prepared in accordance with Experiment 1 (1); from tissue; host or cells: human platelet membrane fraction from blood of healthy volunteers
T2 sequence (P21731 1-343): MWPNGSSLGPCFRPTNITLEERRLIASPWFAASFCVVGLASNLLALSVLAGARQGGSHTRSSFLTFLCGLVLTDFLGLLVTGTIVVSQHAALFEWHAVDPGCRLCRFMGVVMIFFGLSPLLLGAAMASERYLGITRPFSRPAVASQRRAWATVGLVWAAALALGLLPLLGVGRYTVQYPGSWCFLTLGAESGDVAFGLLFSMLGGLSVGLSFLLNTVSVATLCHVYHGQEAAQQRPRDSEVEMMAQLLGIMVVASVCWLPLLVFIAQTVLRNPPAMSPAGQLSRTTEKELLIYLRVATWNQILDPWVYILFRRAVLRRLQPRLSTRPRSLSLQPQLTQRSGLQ
Description: Experiment 2 Binding activity to TXA2 Receptor
as §1
The human platelet membrane fraction was prepared in accordance with Experiment 1 (1).
(2) Binding to TXA2 Receptor
To a binding-reaction solution (50 mM Tris/HCl, pH 7.4, 10 mM MgCl2) (0.2 ml) were added the human platelet membrane fraction (0.05 mg) and 2 nM Sodium [^3H](+)-(5Z)-7- [3-endo- [(phenylsulfonyl)amino]bicyclo[2.2.1]hept-2-exo-yl]heptenoate (Japanese Patent Publication (Kokoku) No.79060/1993, hereinafter referred to as (+)—S—145 sodium salt) (26.4 Ci/mmol), and the mixture was reacted at room temperature for 90 min. After the reaction, the resultant mixture was filtered through a glass fiber filter paper and washed several times with cooled physiological saline, then the radioactivity retained on the filter paper was measured. The specific-binding ratio was calculated by subtracting the non-specific binding ratio (the radio activity similarly determined in the presence of 10 μM (+)—S—145 sodium salt) from the total binding.

Male Hartley guinea pigs [3] = test: Antigen-induced bronchoconstriction; assay type: in vivo, guinea pig
Description: Antigen-induced bronchoconstriction
Male Hartley guinea pigs were passively sensitized by intravenous injection of anti-OVA serum (antibody titer: 1: 3200), and 48 hours later, the animals were challenged by intravenous injection of OVA (70 micro g/kg). The bronchoconstriction induced by antigen was continuously monitored by means of modified method of Konzett-Rössler technique. The peak value of bronchoconstriction in each animal was used for evaluation of compounds. Compound (I-1b) and compound (B-2) were orally administered 1 hour before, compound (A) 2 hours before antigen challenge. The results are shown as follows. *: P<0.05 vs Vehicle, ##: P<0.01 vs Vehicle. ( ): inhibition %.

Male Hartley guinea pigs [4] = test: Antigen-induced bronchial hyperresponsiveness; assay type: in vivo, guinea pig; settings: acetylcholine dose for 200% increase in bronchoconstriction
Description: Antigen-induced bronchial hyperresponsiveness
Male Hartley guinea pigs were actively sensitized to ovalbumin (OVA) by inhalation of aerosolized solution of 1% ovalbumin twice at a week interval. One week after the second sensitization, the animals were treated with antihistamine, diphenhydramine (10 mg/kg, i.p.), and then challenged with 1% OVA aerosol for 5 min. Twenty four hours later, acetylcholine at doses at 3.13, 6. 25, 12.5, 25, 50 and 100 micro g/kg was sequentially injected into the animals which were anesthetized with pentobarbital (30 mg/kg, i.p.). The bronchoconstriction induced by each dose of acetylcholine was monitored by the modified method of Konzett-Rössler technique, and made a dose-response curve of acetylcholine. Using the dose-response curve, the dose required for 200% increase in bronchoconstriction from baseline (PD200) was calculated in each animal and used as an indication of bronchial responsiveness. Compounds were orally administered 1 hour before antigen challenge. **: P<0.01 vs Vehicle(Dunnett's test), ##: P<0.01 vs Vehicle(Student's t test).

[5] = Comparative Experiment 1, read-out: Experiment 1 Antaginistic activity against PGD2 receptor IC50
[6] = Comparative Experiment 1, read-out: Experiment 3 Antaginistic activity against PGD2 receptor IC50
[7] = Comparative Experiment 1, read-out: Experiment 2 Antaginistic activity against TXA2 receptor IC50
[8] = 5 nM [3H]PGD2, 4° C., 90 min, read-out: Binding activity to PGD2 receptor in human platelet membrane fraction IC50
[9] = 1 mg/kg orally 1 hour before antigen challenge
[10] = 10 mg/kg orally 1 hour before antigen challenge
[11] = 0.1 μM PGD2, read-out: Inhibitory activity for the increase of cAMP caused by PGD2 in human platelet IC50
[12] = 2 nM [3H](+)-S-145 sodium salt, room temperature, 90 min, read-out: Binding activity to TXA2 receptor in human platelet membrane fraction IC50

SMILES	IC50 (PGD2 receptor [1]; [8]) [nM]	IC50 (PGD2 receptor [2]; [11]) [nM]	IC50 (TXA2 receptor; [12]) [nM]	other results
CC1(C)[C@H]2C[C@H](C/C=C\CCCC(=O)O)[C@@H](NC(=O)c3csc4ccccc34)[C@@H]1C2 [Compound B-1, reference compound]	–	–	–	IC50 (PGD2 receptor [1]; [5]): 8.2 nM; IC50 (PGD2 receptor [2]; [6]): 41 nM; IC50 (TXA2 receptor; [7]): 3800 nM
O=C(O)CCC/C=C\C[C@H]1[C@@H]2CC[C@@H](C2)[C@@H]1NC(=O)c1ccc(S(=O)(=O)n2cccc2)s1 [Compound I-1b, (5Z)-7-{(1R,2S,3S,4S)-3-[5-(pyrrol-1-ylsulfonyl)-thiophen-2-ylcarbonylamino]-bicyclo[2.2.1]hept-2-yl}-5-heptenoic acid]	4.3	1.3	3	IC50 (PGD2 receptor [1]; [5]): 4.3 nM; Peak bronchoconstriction (Male Hartley guinea pigs [3]; [9]): 47.4 ± 11.4 cm H2O; Peak bronchoconstriction, inhibition % (Male Hartley guinea pigs [3]; [9]): 31%; Peak bronchoconstriction (Male Hartley guinea pigs [3]; [10]): 28.4 ± 12.9 cm H2O; Peak bronchoconstriction, inhibition % (Male Hartley guinea pigs [3]; [10]): 58%; Log PD200 (Male Hartley guinea pigs [4]; [9]): 1.25 ± 0.05; Log PD200 (Male Hartley guinea pigs [4]; [10]): 1.52 ± 0.06**; IC50 (PGD2 receptor [2]; [6]): 1.3 nM; IC50 (TXA2 receptor; [7]): 3 nM
O=C(O)CCCC=CCC1C2CCC(C2)C1NC(=O)c1ccc(S(=O)(=O)c2cccs2)s1 (stereo not drawn) [Compound I-47]	4.1	7	6.2	–
O=C(O)CCCC=CCC1C2CCC(C2)C1NC(=O)c1ccc(Sc2cccs2)s1 (stereo not drawn) [Compound I-59]	0.41	4.6	16	–
O=C(O)CCCC=CCC1C2CCC(C2)C1NC(=O)c1ccc(Sc2ccsc2)s1 (stereo not drawn) [Compound I-79]	0.42	24	15	–
O=C(O)CCCC=CCC1C2CCC(C2)C1NC(=O)c1ccc(S(=O)(=O)c2ccsc2)s1 (stereo not drawn) [Compound I-80]	6.6	39	5.2	–
Cc1ccc(S(=O)(=O)c2ccc(C(=O)NC3C4CCC(C4)C3CC=CCCCC(=O)O)s2)s1 (stereo not drawn) [Compound I-82]	32	53	1.8	–
O=C(O)CCCC=CCC1C2CCC(C2)C1NC(=O)c1ccc(Cc2ccsc2)s1 (stereo not drawn) [Compound I-88]	7.6	4.7	78	–
O=C(O)CCCC=CCC1C2CCC(C2)C1NC(=O)c1ccc(Cc2cccs2)s1 (stereo not drawn) [Compound I-93]	7	8.4	72	–
O=C(O)CCCC=CCC1C2CCC(C2)C1NC(=O)c1ccn(S(=O)(=O)c2cccs2)c1 (stereo not drawn) [Compound I-94]	1	10	83	–
O=C(O)CCCC=CCC1C2CCC(C2)C1NC(=O)c1ccc(CSc2cccs2)s1 (stereo not drawn) [Compound I-104]	0.1	1.6	39	–
O=C(O)CCCC=CCC1C2CCC(C2)C1NC(=O)c1ccc(SCc2cccs2)s1 (stereo not drawn) [Compound I-106]	13	9.3	13	–
Cc1ccc(Cc2ccc(C(=O)NC3C4CCC(C4)C3CC=CCCCC(=O)O)s2)s1 (stereo not drawn) [Compound I-129]	11	22	52	–
O=C(O)CCCC=CCC1C2CCC(C2)C1NC(=O)c1ccc(Cc2cc3ccccc3o2)s1 (stereo not drawn) [Compound I-136]	23	15	16	–

Continued, in another order:

IC50 (PGD2 receptor [1]; [8]) [nM]	IC50 (PGD2 receptor [2]; [11]) [nM]	IC50 (TXA2 receptor; [12]) [nM]	SMILES	other results
0.46	29	34	O=C(O)CCCC=CCC1C2CCC(C2)C1NC(=O)c1csc2c(Cc3cccs3)cccc12 (stereo not drawn) [Compound I-168]	–
0.61	26	32	O=C(O)CCCC=CCC1C2CCC(C2)C1NC(=O)c1csc2c(Cc3ccsc3)cccc12 (stereo not drawn) [Compound I-169]	–
61	11	28	O=C(O)CCCC=CCC1C2CCC(C2)C1NC(=O)c1ccc(Cc2csc3ccccc23)s1 (stereo not drawn) [Compound I-182]	–
2	11	12	CC1(C)C2CC(CC=CCCCC(=O)O)C(NC(=O)c3ccc(S(=O)(=O)n4cccc4)s3)C1C2 (stereo not drawn) [II-15]	–
0.96	4	3.6	CC1(C)C2CC(CC=CCCCC(=O)O)C(NC(=O)c3ccc(S(=O)(=O)c4cccs4)s3)C1C2 (stereo not drawn) [II-18]	–
0.1	24	14	CC1(C)C2CC(CC=CCCCC(=O)O)C(NC(=O)c3ccc(Sc4cccs4)s3)C1C2 (stereo not drawn) [II-21]	–
72	45	4	Cc1cc(S(=O)(=O)c2ccc(C(=O)NC3C(CC=CCCCC(=O)O)CC4CC3C4(C)C)s2)cs1 (stereo not drawn) [II-30]	–
1.5	3.9	4.4	Cc1cccn1S(=O)(=O)c1ccc(C(=O)NC2C(CC=CCCCC(=O)O)CC3CC2C3(C)C)s1 (stereo not drawn) [II-34]	–
